Experiment [1] in a line: Protection from simulated gastric digestion in vitro (pepsin, pancreatin): viability by CFU plating and live/dead flow cytometry. To be noted: for slope of regression plot of viability with SIgA association: post-digestion; for Slope (CFU/% SIgA): regression of viable CFU post-digestion on SIgA association. How it is done: Flow cytometry and immunofluorescence: To measure binding cells were fixed using 4% w/v paraformaldehyde for 30 min, washed with PBS, then incubated with 1% bovine serum albumin (BSA) blocking buffer for 1 h. Cells were stained with 1/100 dilution SYTOT™ 9 (S34854, ThermoFisher) for live cells and goat anti-human IgA conjugated to Alexa 647 fluorophore using 1/50 dilution in 1% BSA (ab96998, Abcam). For flow cytometry, all samples were acquired and analyzed on a FACScan flow cytometer (BD Biosciences, Mountain View, Calif.) using the CellQuest software program. For live/dead analyses following in vitro digestion, cells were stained with SYTOT™ 9 (1/100 dilution) for live cells and propidium iodine (1/1000 dilution) for dead cells or cells with compromised membranes.
Protection from digestion using an in vitro model. To determine the extent to which the SIgA-glycan-mediated-bacterial complexes that included the Ig-bound secretory component (SC) where able to protect bacteria and SIgA from proteolytic degradation, an in vitro model was used. Simulated gastric digestion was performed by resuspending bacteria in 200 ul of 0.1% porcine pepsin (Sigma—Aldrich, St. Louis, Mo.) in PBS at pH 4. Samples were placed in an incubating shaker (New Brunswick Scientific, Edison, N.J.) at 140 rpm at 37° C. for 15 min. Cells were then pelleted and resuspended in 200 ul of 0.04% pancreatin (Sigma— Aldrich) in PBS pH 7, and the samples placed in the incubator shaker at 140 rpm at 37° C. for 5 min. Bacteria were pelleted and washed twice with PBS to remove residual enzymes, then evaluated for viability through CFU serial dilution and spot plating, and with live/dead flow cytometry analysis.

Experiment [2] has as its system colonocytes (Caco-2 / HT29-MTX E12 co-culture). The experiment is described as follows: Colonocyte barrier function and immune gene expression (RT-qPCR). It counts as cell-based, human. To be noted: for change of IL-8 expression when SIgA is first complexed to the bacteria / change of JAM expression when SIgA is first complexed: SIgA-complexed vs bacteria alone. On the procedure: Mammalian cell culture binding assays: Caco-2 colonic cells were co-cultured with HT29-MTX E12 cells at a ratio of 3:1 and seeded at a density of 5×10^4 cells/well in 24-well plates, maintained as described above. On day 1 post-confluence, medium was removed, the cells washed once with PBS, and DMEM without FBS or antibiotics was added prior to binding assay. Bacteria were prepared as described above, with or without SIgA and resuspended in PBS at 1×10^7 CFU/mL. 4×10^5 CFU were added to the colonocytes and the plate was centrifuged at 600×g for 5 min to ensure bacteria association with the cells. After 2 h of incubation at 37° C. in 5% CO2, medium was removed and saved for cytokine analysis. Cells were washed once with PBS, and to one set of replicates, cells were lysed with 0.5% Triton X-100 and serial dilutions of the cell suspensions were plated on MRS and incubated anaerobically at 37° C. overnight to test viability. To a second set of replicates, TRIzol (15596018; Life Technologies) was added directly to washed cells for RNA extraction.
Mammalian cell culture RT-qPCR for gene expression: Total RNA from mammalian co-culture samples were extracted via the TRIzol method. Total RNA (1 μg) was treated with Turbo DNAse (EN0521; Thermo Fisher) to remove genomic DNA, then used for reverse transcription producing cDNA, performed according to manufacturer protocol (High Capacity Complementary DNA Reverse Transcription Kit; Applied Biosystems). Gene list and primer sequences can be found in Table 2. Real-time PCR was performed with the Quantistudio 3 qPCR thermocycler (Applied Biosystems) using SyberGreen master mix (Life Technologies). Actin and GADPH were used as house-keeping genes. Analysis was performed using Quantistudio Design and Analysis Software v.1.4.3.

Experiment [3] is described as follows: BLI persistence / colonization in mice (feces). Type of experiment: in vivo, BALBc mice. On the procedure: Mice: 6-week old female BALBc mice were purchased from The Jackson Labs. Mice were housed in an American Association for the Accreditation of Laboratory Animal Care-accredited facility, and procedures were conducted in compliance with the University of California Institutional Animal Care and Use Committee. Mice were co-housed 5 mice per cage in the Training and Research Animal Care Services vivarium at the University of California, Davis under conventional conditions with free access to standard chow RM1P (801151, Special Diet Services, Witham, England) and sterilized tap water with or without 2′FL. Mice were acclimated for 1 week prior to treatment. Mice were euthanized by decapitation following deep anesthesia with 100 mg/kg ketamine and 10 mg/kg xylazine administered by intraperitoneal injection.
Tissue Collection: Fecal samples were collected aseptically every 2 days for BLI detection. During necropsy, segments of duodenum, ileum, and colon were sectioned. First, Peyer's patches (PP) were collected and stored in 200 μL PBS in bead-beating tubes for homogenization and plating on blue/white screening agar. Duodenum, ileum, colon and cecum contents were collected into sterile tubes for bacterial analysis.
Bacterial plating and counting: PP, luminal contents and fecal samples were subjected to bead beating for 60 s at 4 m/s using a FastPrep homogenizer and 2 mm zirconium ceramic beads. Homogenate was serially diluted and plated on LB agar with kanamycin, x-gal and IPTG (blue-white screening agar) for differentiating JS107 and SJF10 strains, or further processed for DNA extraction and RT-qPCR for quantitation of BLI. […]
Strain-Specific qPCR: BLI was detected in fecal samples and intestinal contents following DNA extraction as described in Frese et al.^15 using the following primers: BLON0915F 5′[…]3′ and BLON0915R 5′ […]3′. […]

The mark [4] stands for this setting: colonocytes, listed as B. infantis.

For “Bifidobacterium longum ssp. infantis ATCC 15697”, the viable bacteria post-digestion in experiment [1] (grown on LNnT, 1000 μg SIgA/1e7 CFU) is 1.3e5 CFU; in experiment [1] (grown on LNnT, no SIgA), 1.2e4 CFU; in experiment [1] (grown on glucose, 1000 μg SIgA/1e7 CFU), 8.9e5 CFU; in experiment [1] (grown on glucose, no SIgA), 1e5 CFU. The “slope of regression plot of viability with SIgA association” value in experiment [1] (grown on LNnT) is recorded as 1.2e3 CFU per % population SIgA association; in experiment [1] (grown on glucose), 8.2e4 CFU per % population SIgA association. In addition, the “Slope (CFU/% SIgA)” value in experiment [1] (substrate 2′FL) is 410.1 CFU/% SIgA; in experiment [1] (substrate LNnT) it was 1214 CFU/% SIgA; in experiment [1] (substrate glucose), 8970 CFU/% SIgA; in experiment [1] (substrate lactose), 76377 CFU/% SIgA. The “change of barrier gene MUCSAC expression when SIgA is first complexed” value in experiment [2] (colonocytes, 1000 μg SIgA per 1e7 CFU) was “decreased”. The “change of IL-8 expression when SIgA is first complexed to the bacteria” value in experiment [2] (setting [4]) was “reduces the expression”; in experiment [2] (colonocytes, listed as BLI) it was “increased”. In addition, the “change of JAM expression when SIgA is first complexed” value is “increasing the expression” in experiment [2] (setting [4]) and “decreased” in experiment [2] (colonocytes, listed as BLI). The “change of Claudin 1 expression with SIgA association” value in experiment [2] (mammalian colonocytes) is listed as “increasing the expression”. Besides, in experiment [2] (mammalian colonocytes), the “change of Occludin expression with SIgA association” value was “increasing the expression”. Further, the “increase of colonization in the gastrointestinal tract with SIgA association” value in experiment [3] (5-6 week old BALBc mice fed water) turned out to be 4 log-scale; in experiment [3] (mice supplemented with an HMO (10% 2′ fucosyllactose)), 5 log-scale. Further, in experiment [3] (one day post oral administration, vs not pre-incubated), the “higher concentration in feces when pre-incubated with milk SIgA” value came to 10 ×.

The values above are taken from US20220280581A1, “BENEFICIAL BACTERIA AND SECRETORY IMMUNOGLOBULIN A” (priority 2019, published 2022).
